Values after ≈ are worked out from the molar mass of the structure shown. Active and inactive are the calls of the source. The calls are words filed in the database; no cut-off is given here.
What was measured:
Staphylococcus aureus [1] = experiment: Antibacterial activity against Staphylococcus aureus ATCC 25923 assessed as bacterial growth inhibition incubated for 18 to 24 hrs by microtiter dilution method; format: functional; details: time 18-24 hrs
Staphylococcus aureus [2] = experiment: Antibacterial activity against methicillin-resistant Staphylococcus aureus BNCC 337371 assessed as reduction on bacterial count at 6X MIC incubated for 24 hrs by time killing assay; format: functional
Staphylococcus aureus [3] = experiment: Antibacterial activity against Staphylococcus aureus ATCC 25923 assessed as reduction on bacterial count at 6X MIC incubated for 24 hrs by time killing assay; format: functional
Staphylococcus aureus [4] = experiment: Antibacterial activity against methicillin-resistant Staphylococcus aureus BNCC 337371 assessed as bacterial growth inhibition incubated for 18 to 24 hrs by microtiter dilution method; format: functional; details: time 18-24 hrs
Enterococcus faecalis = experiment: Antibacterial activity against Enterococcus faecalis assessed as bacterial growth inhibition incubated for 18 to 24 hrs by microtiter dilution method; format: functional; details: time 18-24 hrs
Bacillus subtilis = experiment: Antibacterial activity against Bacillus subtilis assessed as bacterial growth inhibition incubated for 18 to 24 hrs by microtiter dilution method; format: functional; details: time 18-24 hrs
Escherichia coli = experiment: Antibacterial activity against Escherichia coli CICC 10389 assessed as bacterial growth inhibition incubated for 18 to 24 hrs by microtiter dilution method; format: functional; details: time 18-24 hrs
[5] = tested on: Staphylococcus epidermidis; experiment: Antibacterial activity against methicillin-resistant Staphylococcus epidermidis ATCC 51625 assessed as bacterial growth inhibition incubated for 18 to 24 hrs by microtiter dilution method; format: functional; details: time 18-24 hrs
Staphylococcus aureus [6] = experiment: Antibacterial activity against methicillin-resistant Staphylococcus aureus BNCC 337371 infected in Kunming mouse lung assessed as reduction on bacterial growth at 40 mg/kg,ip dosed measured after 7 days by 10-fold dilution method; format: functional; details: time 7 day
Staphylococcus aureus [7] = experiment: Antibacterial activity against methicillin-resistant Staphylococcus aureus BNCC 337371 infected in Kunming mouse lung assessed as reduction on neutrophil infiltration at 40 mg/kg,ip measured after 7 days by hematoxylin and eosin staining based light microscopic analysis; format: functional, organism-based; details: time 7.0 day
Staphylococcus aureus [8] = experiment: Antibacterial activity against methicillin-resistant Staphylococcus aureus BNCC 337371 infected in Kunming mouse lung assessed as reduction on lymphocyte infiltration at 40 mg/kg,ip measured after 7 days by hematoxylin and eosin staining based light microscopic analysis; format: functional, organism-based; details: time 7.0 day
Staphylococcus aureus [9] = experiment: Antibacterial activity against methicillin-resistant Staphylococcus aureus BNCC 337371 infected in Kunming mouse lung assessed as reduction on lymphocyte infiltration at 15 mg/kg,ip measured after 7 days by hematoxylin and eosin staining based light microscopic analysis; format: functional, organism-based; details: time 7.0 day
Staphylococcus aureus [10] = experiment: Antibacterial activity against methicillin-resistant Staphylococcus aureus BNCC 337371 infected in Kunming mouse lung assessed as reduction on bacterial growth at 15 mg/kg,ip dosed measured after 7 days by 10-fold dilution method; format: functional; details: time 7 day
Staphylococcus aureus [11] = experiment: Antibacterial activity against methicillin-resistant Staphylococcus aureus BNCC 337371 infected in Kunming mouse lung assessed as reduction on alveolar diaphragm thickening at 40 mg/kg,ip measured after 7 days by hematoxylin and eosin staining based light microscopic analysis; format: functional, organism-based; details: time 7.0 day
Staphylococcus aureus [12] = experiment: Antibacterial activity against methicillin-resistant Staphylococcus aureus BNCC 337371 infected in Kunming mouse lung assessed as reduction on neutrophil infiltration at 15 mg/kg,ip measured after 7 days by hematoxylin and eosin staining based light microscopic analysis; format: functional, organism-based; details: time 7.0 day
Staphylococcus aureus [13] = experiment: Antibacterial activity against methicillin-resistant Staphylococcus aureus BNCC 337371 infected in Kunming mouse lung assessed as reduction on pulmonary fibrosis at 15 mg/kg,ip measured after 7 days by hematoxylin and eosin staining based light microscopic analysis; format: functional, organism-based; details: time 7.0 day
Staphylococcus aureus [14] = experiment: Antibacterial activity against methicillin-resistant Staphylococcus aureus BNCC 337371 infected in Kunming mouse lung assessed as reduction on alveolar diaphragm thickening at 15 mg/kg,ip measured after 7 days by hematoxylin and eosin staining based light microscopic analysis; format: functional, organism-based; details: time 7.0 day
Staphylococcus aureus [15] = experiment: Antibacterial activity against methicillin-resistant Staphylococcus aureus BNCC 337371 infected in Kunming mouse assessed as reduction on bacterial growth by measuring survival rate at ip dosed measured after 7 days by Bliss method; format: functional; details: BNCC 337371, 168 h, time 7 day

C=C[C@]1(C)C[C@@H](OC(=O)CS[C@@H]2C[C@H]3CC[C@@H](C2)N3C)[C@]2(C)[C@H](C)CC[C@]3(CCC(=O)[C@H]32)[C@@H](C)[C@@H]1O [RETAPAMULIN] gave an MIC (Staphylococcus aureus [1]) of 0.25 µg/mL (≈ 0.483 µM), an Activity (Staphylococcus aureus [2]) of 3.3 log10CFU/ml and an Activity (Staphylococcus aureus [3]) of 2.25 log10CFU/ml. It also gave an MIC (Staphylococcus aureus [4]) of 0.125 µg/mL (≈ 0.241 µM), an MIC (Enterococcus faecalis) of over 16 µg/mL and an MIC (Bacillus subtilis) of 8 µg/mL (≈ 15.5 µM). It also gave an MIC (Escherichia coli) of over 16 µg/mL and an MIC [5] of 0.125 µg/mL (≈ 0.241 µM).
In the case of C=C[C@]1(C)C[C@@H](OC(=O)CSCCN(CC)CC)[C@]2(C)[C@H](C)CC[C@]3(CCC(=O)[C@H]32)[C@@H](C)[C@@H]1O.O=C(O)/C=C/C(=O)O [TIAMULIN FUMARATE], the MIC (Staphylococcus aureus [1]) was 0.5 µg/mL, the Activity (Staphylococcus aureus [6]) was 2.56 log10CFU/ml and the Activity (Staphylococcus aureus [7]) was “Active”. For the same molecule, the Activity (Staphylococcus aureus [8]) was “Active”, the Activity (Staphylococcus aureus [9]) was “Active” and the Activity (Staphylococcus aureus [10]) was 1.68 log10CFU/ml. The MIC (Staphylococcus aureus [4]) was 0.5 µg/mL, the Activity (Staphylococcus aureus [11]) was “Active” and the Activity (Staphylococcus aureus [12]) was “Active”. For the same molecule, the Activity (Staphylococcus aureus [13]) was “Active”, the Activity (Staphylococcus aureus [14]) was “Active” and the MIC (Enterococcus faecalis) was over 16 µg/mL. The ED50 (Staphylococcus aureus [15]) was 22.9 mg/kg, the MIC (Bacillus subtilis) was over 16 µg/mL and the MIC (Escherichia coli) was over 16 µg/mL. The MIC [5] was 0.5 µg/mL.
For C=C[C@]1(C)C[C@@H](OC(=O)CSC2=NC(C)=C(C(=O)OCCC)C(C)N2)[C@]2(C)[C@H](C)CC[C@]3(CCC(=O)[C@H]32)[C@@H](C)[C@@H]1O (stereo partly specified), the MIC (Staphylococcus aureus [1]) was 0.25 µg/mL (≈ 0.425 µM), the MIC (Staphylococcus aureus [4]) was 0.5 µg/mL (≈ 0.849 µM) and the MIC (Enterococcus faecalis) was over 16 µg/mL. For the same molecule, the MIC (Bacillus subtilis) was over 16 µg/mL, the MIC (Escherichia coli) was over 16 µg/mL and the MIC [5] was 0.5 µg/mL (≈ 0.849 µM).
C=C[C@]1(C)C[C@@H](OC(=O)CSC2=NC(CCC)=C(C(=O)OC)C(C)N2)[C@]2(C)[C@H](C)CC[C@]3(CCC(=O)[C@H]32)[C@@H](C)[C@@H]1O (stereo partly specified) gave an MIC (Staphylococcus aureus [1]) of 4 µg/mL (≈ 6.79 µM), an MIC (Staphylococcus aureus [4]) of 8 µg/mL (≈ 13.6 µM) and an MIC (Enterococcus faecalis) of over 16 µg/mL. The MIC (Bacillus subtilis) was 16 µg/mL (≈ 27.2 µM), the MIC (Escherichia coli) was over 16 µg/mL and the MIC [5] was 4 µg/mL (≈ 6.79 µM).
Molecule C=C[C@]1(C)C[C@@H](OC(=O)CSC2=NC(C)=C(C(=O)OC)C(C)N2)[C@]2(C)[C@H](C)CC[C@]3(CCC(=O)[C@H]32)[C@@H](C)[C@@H]1O (stereo partly specified) has an MIC (Staphylococcus aureus [1]) of 0.25 µg/mL (≈ 0.446 µM), an MIC (Staphylococcus aureus [4]) of 0.25 µg/mL (≈ 0.446 µM) and an MIC (Enterococcus faecalis) of over 16 µg/mL. It also gave an MIC (Bacillus subtilis) of 8 µg/mL (≈ 14.3 µM), an MIC (Escherichia coli) of over 16 µg/mL and an MIC [5] of 0.125 µg/mL (≈ 0.223 µM).
Work on C=C[C@]1(C)C[C@@H](OC(=O)CSc2nc(C)c(C(=O)OC)c(CCC)n2)[C@]2(C)[C@H](C)CC[C@]3(CCC(=O)[C@H]32)[C@@H](C)[C@@H]1O yielded an MIC (Staphylococcus aureus [1]) of 0.25 µg/mL (≈ 0.426 µM), an MIC (Staphylococcus aureus [4]) of 0.125 µg/mL (≈ 0.213 µM) and an MIC (Enterococcus faecalis) of over 16 µg/mL. It also gave an MIC (Bacillus subtilis) of 16 µg/mL (≈ 27.3 µM), an MIC (Escherichia coli) of over 16 µg/mL and an MIC [5] of 0.0625 µg/mL (≈ 0.107 µM).
C=C[C@]1(C)C[C@@H](OC(=O)CSc2nc(C)c(C(=O)OC)c(CCCC)n2)[C@]2(C)[C@H](C)CC[C@]3(CCC(=O)[C@H]32)[C@@H](C)[C@@H]1O was tested, and the MIC (Staphylococcus aureus [1]) was 2 µg/mL (≈ 3.33 µM), the MIC (Staphylococcus aureus [4]) was 4 µg/mL (≈ 6.66 µM) and the MIC (Enterococcus faecalis) was over 16 µg/mL. For the same molecule, the MIC (Bacillus subtilis) was over 16 µg/mL, the MIC (Escherichia coli) was over 16 µg/mL and the MIC [5] was 0.5 µg/mL (≈ 0.832 µM).
With C=CCOC(=O)c1c(C)nc(SCC(=O)O[C@@H]2C[C@@](C)(C=C)[C@@H](O)[C@H](C)[C@]34CCC(=O)[C@H]3[C@@]2(C)[C@H](C)CC4)nc1C the MIC (Staphylococcus aureus [1]) was 0.125 µg/mL (≈ 0.214 µM), the MIC (Staphylococcus aureus [4]) was 1 µg/mL (≈ 1.71 µM) and the MIC (Enterococcus faecalis) was over 16 µg/mL. For the same molecule, the MIC (Bacillus subtilis) was 4 µg/mL (≈ 6.84 µM), the MIC (Escherichia coli) was over 16 µg/mL and the MIC [5] was 0.25 µg/mL (≈ 0.428 µM).
For C=C[C@]1(C)C[C@@H](OC(=O)CSC2=NC(C(CC)CC)=C(C(=O)OC)C(C)N2)[C@]2(C)[C@H](C)CC[C@]3(CCC(=O)[C@H]32)[C@@H](C)[C@@H]1O (stereo partly specified), the MIC (Staphylococcus aureus [1]) was 0.5 µg/mL (≈ 0.811 µM), the MIC (Staphylococcus aureus [4]) was 0.25 µg/mL (≈ 0.405 µM) and the MIC (Enterococcus faecalis) was over 16 µg/mL. It also gave an MIC (Bacillus subtilis) of over 16 µg/mL, an MIC (Escherichia coli) of over 16 µg/mL and an MIC [5] of 0.25 µg/mL (≈ 0.405 µM).
C=C[C@]1(C)C[C@@H](OC(=O)CSc2nc(C)c(C(=O)OC)c(C)n2)[C@]2(C)[C@H](C)CC[C@]3(CCC(=O)[C@H]32)[C@@H](C)[C@@H]1O was tested, and the MIC (Staphylococcus aureus [1]) was at most 0.0156 µg/mL, the Activity (Staphylococcus aureus [2]) was “Active” and the Activity (Staphylococcus aureus [3]) was “Active”. It also gave an MIC (Staphylococcus aureus [4]) of at most 0.0156 µg/mL, an MIC (Enterococcus faecalis) of over 16 µg/mL and an MIC (Bacillus subtilis) of 2 µg/mL (≈ 3.58 µM). For the same molecule, the MIC (Escherichia coli) was over 16 µg/mL and the MIC [5] was 0.0313 µg/mL (≈ 0.056 µM).
Molecule C=C[C@]1(C)C[C@@H](OC(=O)CSC2=NC(CCCC)=C(C(=O)OC)C(C)N2)[C@]2(C)[C@H](C)CC[C@]3(CCC(=O)[C@H]32)[C@@H](C)[C@@H]1O (stereo partly specified) has an MIC (Staphylococcus aureus [1]) of 1 µg/mL (≈ 1.66 µM), an MIC (Staphylococcus aureus [4]) of 1 µg/mL (≈ 1.66 µM) and an MIC (Enterococcus faecalis) of over 16 µg/mL. The MIC (Bacillus subtilis) was over 16 µg/mL, the MIC (Escherichia coli) was over 16 µg/mL and the MIC [5] was 1 µg/mL (≈ 1.66 µM).
C=C[C@]1(C)C[C@@H](OC(=O)CSC2=NC(C)=C(C(=O)OCC)C(C)N2)[C@]2(C)[C@H](C)CC[C@]3(CCC(=O)[C@H]32)[C@@H](C)[C@@H]1O (stereo partly specified) gave an MIC (Staphylococcus aureus [1]) of 0.0625 µg/mL (≈ 0.109 µM), an MIC (Staphylococcus aureus [4]) of 0.125 µg/mL (≈ 0.217 µM) and an MIC (Enterococcus faecalis) of over 16 µg/mL. It also gave an MIC (Bacillus subtilis) of over 16 µg/mL, an MIC (Escherichia coli) of over 16 µg/mL and an MIC [5] of 0.0625 µg/mL (≈ 0.109 µM).
